# Target: human GLP-1 receptor (Homo sapiens (Human), UniProt P43220)
# Conditions: read-out: Mean EC50; cAMP, HTRF detection, 30 min at 37° C., HEK-293 cells expressing cloned human GLP-1 receptor
# Chain of human GLP-1 receptor (P43220 24-463): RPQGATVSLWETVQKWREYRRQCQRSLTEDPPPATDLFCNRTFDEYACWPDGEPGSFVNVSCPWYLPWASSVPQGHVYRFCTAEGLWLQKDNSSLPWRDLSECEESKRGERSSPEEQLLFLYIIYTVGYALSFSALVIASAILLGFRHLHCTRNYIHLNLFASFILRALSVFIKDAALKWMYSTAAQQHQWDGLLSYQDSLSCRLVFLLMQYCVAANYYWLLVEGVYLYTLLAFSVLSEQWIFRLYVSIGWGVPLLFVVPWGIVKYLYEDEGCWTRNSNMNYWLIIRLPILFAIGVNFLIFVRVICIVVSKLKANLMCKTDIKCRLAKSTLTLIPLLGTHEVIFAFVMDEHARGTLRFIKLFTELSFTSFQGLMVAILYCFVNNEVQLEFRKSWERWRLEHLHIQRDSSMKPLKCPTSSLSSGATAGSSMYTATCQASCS
row,EC50,Compound
1,338 nM,"Cc1nccc(Oc2ccc(C[C@H](NC(=O)[C@@H]3Cc4cc5c(cc4CN3C(=O)NC3CCC(F)(F)CC3)O[C@@H](c3ccc(OCc4ccc(Cl)c(Cl)c4)cc3)CO5)C(=O)O)cc2)c1C [Example 352, (S)-2-{[(3S,8S)-3-[4-(3,4-Dichloro-benzyloxy)-phenyl]-7-(4,4-difluoro-cyclohexylcarbamoyl)-2,3,6,7,8,9-hexahydro-[1,4]dioxino[2,3-g]isoquinoline-8-carbonyl]-amino}-3-[4-(2,3-dimethyl-pyridin-4-yloxy)-phenyl]-propionic acid]"
2,45 nM,"Cc1nc(C(=O)N2Cc3cc4c(cc3C[C@H]2C(=O)N[C@@H](Cc2ccc(-c3ccnc(C)c3C)cc2)C(=O)O)OC[C@H](c2ccc(OCc3c(Cl)cccc3Cl)cc2)O4)c(C)o1 [Example 355, (S)-2-{[(3S,8S)-3-[4-(2,6-Dichloro-benzyloxy)-phenyl]-7-(2,5-dimethyl-oxazole-4-carbonyl)-2,3,6,7,8,9-hexahydro-[1,4]dioxino[2,3-g]isoquinoline-8-carbonyl]-amino}-3-[4-(2,3-dimethyl-pyridin-4-yl)phenyl]-propionic acid]"
3,57 nM,"Cc1nc(C(=O)N2Cc3cc4c(cc3C[C@H]2C(=O)N[C@@H](Cc2ccc(-c3ccnc(C)c3C)cc2)C(=O)O)OC[C@H](c2ccc(OCc3cc(F)ccc3F)cc2)O4)c(C)o1 [Example 356, (S)-2-{[(3S,8S)-3-[4-(2,5-Difluoro-benzyloxy)-phenyl]-7-(2,5-dimethyl-oxazole-4-carbonyl)-2,3,6,7,8,9-hexahydro-[1,4]dioxino[2,3-g]isoquinoline-8-carbonyl]-amino}-3-[4-(2,3-dimethyl-pyridin-4-yl)-phenyl]-propionic acid]"
4,19 nM,"Cc1nc(C(=O)N2Cc3cc4c(cc3C[C@H]2C(=O)N[C@@H](Cc2ccc(-c3ccnc(C)c3C)cc2)C(=O)O)OC[C@H](c2ccc(OCc3cc(F)cc(F)c3)cc2)O4)c(C)o1 [Example 357, (S)-2-{[(3S,8S)-3-[4-(3,5-Difluoro-benzyloxy)-phenyl]-7-(2,5-dimethyl-oxazole-4-carbonyl)-2,3,6,7,8,9-hexahydro-[1,4]dioxino[2,3-g]isoquinoline-8-carbonyl]-amino}-3-[4-(2,3-dimethyl-pyridin-4-yl)-phenyl]propionic acid]"
5,117 nM,"Cc1nc(C(=O)N2Cc3cc4c(cc3C[C@H]2C(=O)N[C@@H](Cc2ccc(-c3ccnc(C)c3C)cc2)C(=O)O)OC[C@H](c2ccc(OCc3cccc(Cl)c3F)cc2)O4)c(C)o1 [Example 359, (S)-2-{[(3S,8S)-3-[4-(3-Chloro-2-fluoro-benzyloxy)-phenyl]-7-(2,5-dimethyl-oxazole-4-carbonyl)-2,3,6,7,8,9-hexahydro-[1,4]dioxino[2,3-g]isoquinoline-8-carbonyl]-amino}-3-[4-(2,3-dimethyl-pyridin-4-yl)phenyl]-propionic acid]"
6,297 nM,"Cc1nc(C(=O)N2Cc3cc4c(cc3C[C@H]2C(=O)N[C@@H](Cc2ccc(-c3ccnc(C)c3C)cc2)C(=O)O)OC[C@H](c2ccc(OCc3c(F)cccc3Cl)cc2)O4)c(C)o1 [Example 360, (S)-2-{[(3S,8S)-3-[4-(2-Chloro-6-fluoro-benzyloxy)-phenyl]-7-(2,5-dimethyl-oxazole-4-carbonyl)-2,3,6,7,8,9-hexahydro-[1,4]dioxino[2,3-g]isoquinoline-8-carbonyl]-amino}-3-[4-(2,3-dimethyl-pyridin-4-yl)phenyl]-propionic acid]"
7,89 nM,"Cc1nc(C(=O)N2Cc3cc4c(cc3C[C@H]2C(=O)N[C@@H](Cc2ccc(-c3ccnc(C)c3C)cc2)C(=O)O)OC[C@H](c2ccc(OCc3cccc(Cl)c3Cl)cc2)O4)c(C)o1 [Example 361, (S)-2-{[(3S,8S)-3-[4-(2,3-Dichloro-benzyloxy)-phenyl]-7-(2,5-dimethyl-oxazole-4-carbonyl)-2,3,6,7,8,9-hexahydro-[1,4]dioxino[2,3-g]isoquinoline-8-carbonyl]-amino}-3-[4-(2,3-dimethyl-pyridin-4-yl)phenyl]-propionic acid]"
